A short description of series [1]: PK studies in beagle dogs. The format is in vivo. The note with it: dog, in vivo; beagle dogs, same dose (2 mg/kg); prior preliminary experiment by the team, unpublished results; read-out: absolute bioavailability. The procedure: For the PK studies in rats and dogs, a total of 18 SD rats and 15 male beagle dogs were randomly divided into three groups, with six rats or five dogs per group, respectively. Prior to the experiments, all animals underwent a 12-h fasting period, while having free access to water. The animals were administered single oral doses of ammoxetine in three different dose levels: 8 mg/kg, 20 mg/kg, and 50 mg/kg for rats, and 2 mg/kg, 5 mg/kg, and 12.5 mg/kg for dogs, representing low, medium, and high doses. Serial blood samples were collected from the rats at 0, 2, 5, 15, and 30 min, as well as 1, 2, 4, 6, 8, 12, and 24 h post-dosing. For the dogs, blood samples were collected at 0, 5, 15, 30, and 45 min, as well as 1, 2, 4, 6, 8, 12, and 24 h post-dosing. Approximately 0.3 mL of blood was collected from the rats, while 2 mL of blood was collected from the dogs. The blood samples were collected into heparinized tubes. Following centrifugation, plasma samples were obtained and stored at −30°C until further analysis.
For the absolute bioavailability (F, %) study in dogs, the dogs initially received a single gastric gavage of a low dose (2 mg/kg) of ammoxetine, followed by a 1-week washout period. After the washout, the same dose of ammoxetine was administered intravenously (i.v.). To assess the effects of nonfasting on ammoxetine PK, dogs that received a medium dose (5 mg/kg) of ammoxetine via gastric gavage underwent a radical washout period of 1 week. Subsequently, they were administered the same dose of ammoxetine via gastric gavage under nonfasting conditions. To compare sex differences in ammoxetine PK, an additional five female beagle dogs were administered a medium dose (5 mg/kg) of ammoxetine via gastric gavage after a 12-h overnight fast. Blood samples (2 mL) were collected from these dogs into heparinized tubes at predose and at specified time points: 5, 15, 30, and 45 min, as well as 1, 2, 4, 6, 8, 12, and 24 h postdose. For the repeat-dose study, after completing blood collection during the initial administration, dogs receiving a single gastric gavage of a medium dose (5 mg/kg) of ammoxetine under fasting conditions were subsequently orally dosed with seven repeat doses of ammoxetine (5 mg/kg) every 12 h. Trough blood samples were collected before the fourth to last administration to ensure steady-state blood concentrations (C ss ) were achieved. Approximately 2 mL of blood was collected at specified time points after the last dose and transferred into heparinized tubes. All blood samples were then centrifuged at 4,000 r/min for 20 min to obtain plasma samples, which were stored at −30°C until analysis.
To determine the concentration of ammoxetine, 100 μL of L-phencynonate (IS, 50 ng/mL) and 300 μL of methanol were added to 100 μL of plasma samples from rats or dogs. After thorough vortexing, the mixture was centrifuged at 13,800×g for 10 min. The supernatants were then subjected to analysis using LC-MS-MS methods. PK parameters were calculated using DAS (Drug And Statistics for Windows) version 2.0, developed by the Shanghai University of Traditional Chinese Medicine, Shanghai, China. The F was determined by comparing the plasma area under the concentration-time curve (AUC) values after oral (p.o.) and intravenous (i.v.) administration of ammoxetine. F was calculated using the formula: F=AUCp.o./AUCi.v.×100% . Statistical analyses were performed using OriginPro 8.6 software. Paired sample or student’s t-test, as well as one-way ANOVA, were employed to compare the means of two or three groups, with a significance level set at p < 0.05.

In another series the test system is P-gp. Particulars: ref Ruike et al., 2010; cited from earlier work.

As usually defined, the bioavailability is the share of a dose that reaches the circulation, judged against a reference dose that is usually intravenous.

`CNCC[C@H](Oc1cccc2ccccc12)c1cccs1` [duloxetine, reference compound]: in series [1], the bioavailability was around 33%. Also, the “action on P-gp” value with P-gp is “P-gp inhibitor”.

(Values after article PMC11579541, “In vitro, in vivo, and in silico approaches for evaluating the preclinical DMPK profiles of ammoxetine, a novel chiral serotonin and norepinephrine reuptake inhibitor” (Frontiers in Pharmacology, 2024).)
